Experiments:
[1] = test system: U87MG human glioblastoma xenografts; experiment: U87MG human glioblastoma xenograft, tumor growth delay, 49-day study (Example 2);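 note: female athymic nude mice with subcutaneous tumors, groups of ten, tumors measured twice weekly, endpoint at 2000 mm^3 tumor volume or Day 49, treated compared with control mice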
Description: The experiment consisted of groups (n=10) of female athymic nude mice bearing subcutaneous U87MG xenografts (75-144 mm^3) on Day 1. Candesartan was evaluated as monotherapies at dosages of 1, 5, 10 and 50 mg/kg administered intraperitoneally (i.p.) on a once daily for twenty-one days (qd×21) schedule. […] Dosing was initiated on Day 1, and tumors were measured twice each week until the study was ended on Day 49. Animals were monitored individually and each mouse was euthanized for endpoint when its tumor attained a volume of 2000 mm^3 (about 2 grams) or on the final day (Day 49), whichever came first. Tumor samples were collected at endpoint, and histopathology analyses were performed.
The time to endpoint (TTE) was calculated for each mouse. Treatment outcome was determined from percent tumor growth delay (% TGD), defined as the percent increase in median TTE of treated versus control mice, with differences in the TTE values between groups deemed statistically significant at P 0.05 using logrank survival analysis. Animals were also monitored for partial regression (PR) and complete regression (CR) responses. Treatment tolerability was assessed by body weight measurements and frequent observation for signs of treatment-related (TR) toxicity.
Treatment response was determined from an analysis of percent tumor growth delay (% TGD), defined as the percent increase in the median time to endpoint (TTE) in treated versus control mice; by logrank significance of differences in survival among treatment groups; and by regression responses. Plots of group mean tumor growth were also considered. Treatment tolerability was assessed by body weight measurements and frequent observation for clinical symptoms of treatment-related (TR) side effects.
Xenografts were initiated with U87MG human glioblastomas (Piedmont Research Center, Morrisville, N.C.) by serial subcutaneous transplantation in athymic nude mice. Each test mouse received a U87MG tumor fragment (1 mm^3) implanted subcutaneously in the right flank, and the growth of tumors was monitored as the average size approached the target range of 80 to 120 mm^3. […] Tumor volume was calculated using the formula: Tumor Volume (mm^3)=w^2×l/2 where w=width and l=length in mm of a U87MG tumor. Tumor weight may be estimated with the assumption that 1 mg is equivalent to 1 mm^3 of tumor volume. Therapeutic Agents
Doses of valsartan and candesartan were each formulated weekly, and were stored at 4° C. Valsartan dosing solutions were formulated at concentrations of 15 and 3 mg/mL to yield the desired 150 and 30 mg/kg dosages, respectively, in a dosing volume of 0.2 mL per 20 grams body weight (10 mL/kg). The required amount of valsartan powder for the 15 mg/mL solution was suspended in sterile saline, then dissolved with 0.1 N NaOH and pH adjusted to 7.4 with 0.1 N HCl. The 3 mg/mL valsartan dosing solution was prepared by diluting an aliquot of the 15 mg/mL valsartan solution with sterile saline. Candesartan doses were formulated in 0.5% carboxymethyl cellulose (CMC) in deionized water at concentrations of 5, 1, 0.5 and 0.1 mg/mL to yield the desired 50, 10, 5 and 1 mg/kg dosages, respectively, in a dosing volume of 10 mL/kg.
Each test agent was administered intraperitoneally (i.p.) once daily for twenty-one days (qd×21), unless otherwise indicated.
Group 1 was not treated and served as the control group for calculation of % TGD. […] Groups 4-7 received candesartan at 50, 10, 5 or 1 mg/kg, respectively. […] All doses were scaled to the body weights of the individual animals.
Tumors were measured twice each week using calipers.

[2] = test system: U87MG tumor fragments; experiment: animal or person
Description: HRLN female nu/nu mice were seeded with 1 mm^3 U87MG tumor fragments subcutaneously in the flank. Final caliper and body weight measurements were taken on the last day of the study.
All animals were assessed periodically for body weight, as well as tumor burden, using standard protocols with mechanical calipers. […] Dosing was stopped for any group with two measurements of mean body weight loss of greater than 20%. The group was not euthanized, and recovery was allowed. Within a group with greater than 20% weight loss, individuals reaching the individual body weight loss endpoint were euthanized. If the group body weight loss was recovered, dosing may resume. […] Dosing was then resumed with the candidate agent at half the original dose. Animals were monitored as a group. The endpoint of the experiment was a mean tumor weight in control group (or group 1) of 2000 mm^3 or 60 days, whichever comes first. When the endpoint was reached, all the animals were euthanized.

[3] = Group 4: candesartan 50 mg/kg ip qd x 21
[4] = Group 5: candesartan 10 mg/kg ip qd x 21
[5] = Group 6: candesartan 5 mg/kg ip qd x 21
[6] = Group 7: candesartan 1 mg/kg ip qd x 21
[7] = combination: temozolomide 5 po qd x 5 + agent qd x 30 (doses as under E7)
[8] = combination: temozolomide 5 po qd x 5 + agent qd x 30 (doses as under E7), number of animals

CCOc1nc2cccc(C(=O)OC(C)OC(=O)OC3CCCCC3)c2n1Cc1ccc(-c2ccccc2-c2nn[nH]n2)cc1 (centres unmarked) [Candesartan, candesartan cilexetil]
% TGD (vs Group 1) [1, 3]: 9% | Deaths NTR [1, 3]: 0 | Deaths TR [1, 3]: 0 | MTV (n) Day 49 [1, 3]: 1 (1) mm^3 | Median TTE [1, 3]: 12.7 days | Regressions CR [1, 3]: 1 | Regressions PR [1, 3]: 0 | Regressions TFS [1, 3]: 1 | T − C (TGD vs Group 1) [1, 3]: 1.1 days | % TGD (vs Group 1) [1, 4]: 20% | Deaths NTR [1, 4]: 0 | Deaths TR [1, 4]: 0 | Median TTE [1, 4]: 13.9 days | Regressions CR [1, 4]: 0 | Regressions PR [1, 4]: 0 | Regressions TFS [1, 4]: 0 | T − C (TGD vs Group 1) [1, 4]: 2.3 days | % TGD (vs Group 1) [1, 5]: 16% | Deaths NTR [1, 5]: 0 | Deaths TR [1, 5]: 0 | Median TTE [1, 5]: 13.5 days | Regressions CR [1, 5]: 0 | Regressions PR [1, 5]: 0 | Regressions TFS [1, 5]: 0 | T − C (TGD vs Group 1) [1, 5]: 1.9 days | % TGD (vs Group 1) [1, 6]: 7% | Deaths TR [1, 6]: 0 | Median TTE [1, 6]: 12.4 days | Regressions CR [1, 6]: 0 | Regressions PR [1, 6]: 0 | Regressions TFS [1, 6]: 0 | T − C (TGD vs Group 1) [1, 6]: 0.8 days | Deaths NTR ([1]; Group 7: candesartan 1 mg/kg ip qd x 21, accidental death on Day 5): 1 | efficacy conclusion ([1]; candesartan monotherapy 1, 5, 10, 50 mg/kg i.p. qd×21): not efficacious as monotherapy | MTV(n) Day 29 (median tumor volume) ([2]; combination: temozolomide 5 po qd x 5 + agent qd x 30 (Candesartan 10 ip, Valsartan 30 ip, Carvedilol 200 po, Irbesartan 100 po, Amlodipine 10 ip, Clonidine 1 ip, Olmesartan 10 po, Ramipril 5 po, Enalapril 5 ip, Benazepril 10 ip, Quinapril 15 po, Aliskiren 50 ip, Guanabenz 1 ip, Diltiazem 20 po, Lercanidipine 3 po, Labetalol 10 sc)): 32 (8) mm^3 | Deaths NTR (non-treatment-related death) [2, 7]: 0 | Deaths TR (treatment-related death) [2, 7]: 0 | Mean BW Nadir, day of nadir [2, 7]: Day 3 | Regression CR (complete regression) [2, 8]: 0 | Regression PR (partial regression) [2, 8]: 6 | % TGI (percent tumor growth inhibition, compared to Group 1) ([2]; combination: temozolomide 5 po qd x 5 + agent qd x 30 (doses as under E7), vs Group 1 temozolomide 5 alone): 92%

Reference: patent US9757424B2, “Compositions and methods of treating gliomas” (BioMed Valley Discoveries, Inc., priority 2011, dated 2017)
